Experimental findings from ChEMBL document CHEMBL4325871 (Eur J Med Chem, 2019) are described below.

Assay [1] concerns the target Calcium/calmodulin-dependent protein kinase type II subunit alpha (Homo sapiens) (UniProt Q9UQM7). The experiment in a line: Inhibition of human CAMK2A assessed as residual activity at 1 uM using KKALRRQETVDAL as substrate by [gamma-33P]-ATP assay relative to control.
In assay [2] the target is Glycogen synthase kinase-3 beta (Homo sapiens) (UniProt P49841). In words: Inhibition of human GSK3B assessed as residual activity at 1 uM using YRRAAVPPSPSLSRHSSPHQ(pS)EDEEE as substrate by [gamma-33P]-ATP assay relative to control.
For assay [3], the target named is Inhibitor of nuclear factor kappa-B kinase subunit alpha (Homo sapiens) (UniProt O15111). The experiment in a line: Inhibition of human IKKalpha assessed as residual activity at 1 uM using KKKKERLLDDRHDSGLDSMKDEE as substrate by [gamma-33P]-ATP assay relative to control.
For assay [4], the target named is Kinase suppressor of Ras 2 (Homo sapiens) (UniProt Q6VAB6). In words: Inhibition of human KSR2 assessed as residual activity at 1 uM using KRREILSRRPSYR as substrate by [gamma-33P]-ATP assay relative to control.
Chain of Kinase suppressor of Ras 2 (Homo sapiens) (Q6VAB6 whole entry): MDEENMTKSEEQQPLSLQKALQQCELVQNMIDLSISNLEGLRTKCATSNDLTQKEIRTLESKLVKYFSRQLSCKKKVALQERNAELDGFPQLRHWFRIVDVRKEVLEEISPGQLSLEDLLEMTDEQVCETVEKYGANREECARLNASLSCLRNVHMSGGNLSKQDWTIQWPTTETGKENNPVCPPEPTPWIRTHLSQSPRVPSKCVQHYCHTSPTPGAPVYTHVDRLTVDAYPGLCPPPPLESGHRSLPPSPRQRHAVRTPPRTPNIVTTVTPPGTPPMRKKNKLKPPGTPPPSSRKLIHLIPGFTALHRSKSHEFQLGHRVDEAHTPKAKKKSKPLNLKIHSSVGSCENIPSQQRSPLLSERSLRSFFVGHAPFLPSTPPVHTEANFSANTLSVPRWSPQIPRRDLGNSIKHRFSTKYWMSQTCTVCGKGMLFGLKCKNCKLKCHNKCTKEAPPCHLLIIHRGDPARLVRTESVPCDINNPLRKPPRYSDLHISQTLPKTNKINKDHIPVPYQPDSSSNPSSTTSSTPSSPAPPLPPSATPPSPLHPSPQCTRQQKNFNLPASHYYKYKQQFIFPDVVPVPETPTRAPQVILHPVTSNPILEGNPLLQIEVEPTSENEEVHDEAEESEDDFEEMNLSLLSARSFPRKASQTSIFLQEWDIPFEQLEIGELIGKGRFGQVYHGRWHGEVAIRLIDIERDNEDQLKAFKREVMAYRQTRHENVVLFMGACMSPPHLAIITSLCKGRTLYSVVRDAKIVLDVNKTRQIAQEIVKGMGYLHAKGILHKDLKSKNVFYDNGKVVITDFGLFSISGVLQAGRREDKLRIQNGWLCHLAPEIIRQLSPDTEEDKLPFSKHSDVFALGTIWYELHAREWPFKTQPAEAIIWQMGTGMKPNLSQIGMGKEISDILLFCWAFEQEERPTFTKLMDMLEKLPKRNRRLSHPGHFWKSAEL
Assay [5] deals with Dual specificity mitogen-activated protein kinase kinase 7 (Homo sapiens) (UniProt O14733). The experiment in a line: Inhibition of human MKK7 assessed as residual activity at 1 uM using JNK as substrate by [gamma-33P]-ATP assay relative to control.
The target of assay [6] is Mitogen-activated protein kinase kinase kinase 9 (Homo sapiens) (UniProt P80192). The experiment in a line: Inhibition of human MLK1 assessed as residual activity at 1 uM using casein as substrate by [gamma-33P]-ATP assay relative to control.
In assay [7] the target is Muscle, skeletal receptor tyrosine-protein kinase (Homo sapiens) (UniProt O15146). In words: Inhibition of human MUSK assessed as residual activity at 1 uM using MBP as substrate by [gamma-33P]-ATP assay relative to control.
The target of assay [8] is Serine/threonine-protein kinase N1 (Homo sapiens) (UniProt Q16512). The experiment in a line: Inhibition of human PKN1 assessed as residual activity at 1 uM using KKLNRTLSVA as substrate by [gamma-33P]-ATP assay relative to control.
For assay [9], the target named is Macrophage-stimulating protein receptor (Homo sapiens) (UniProt Q04912). The experiment in a line: Inhibition of human RON assessed as residual activity at 1 uM using KKSRGDYMTMQIG as substrate by [gamma-33P]-ATP assay relative to control.
In assay [10] the target is SNF-related serine/threonine-protein kinase (Homo sapiens) (UniProt Q9NRH2). In words: Inhibition of human SNRK assessed as residual activity at 1 uM using MBP as substrate by [gamma-33P]-ATP assay relative to control.
Assay [11] deals with TRAF2 and NCK-interacting protein kinase (Homo sapiens) (UniProt Q9UKE5). The experiment in a line: Inhibition of human TNIK assessed as residual activity at 1 uM using RLGRDKYKTLRQIRQ as substrate by [gamma-33P]-ATP assay relative to control.
Assay [12] deals with Wee1-like protein kinase (Homo sapiens) (UniProt P30291). The experiment in a line: Inhibition of human WEE1 assessed as residual activity at 1 uM using MBP as substrate by [gamma-33P]-ATP assay relative to control.
The target in assay [13] is NUAK family SNF1-like kinase 1 (Homo sapiens) (UniProt O60285). In words: Inhibition of human ARK5 assessed as residual activity at 1 uM using KKKVSRSGLYRSPSMPENLNRPR as substrate by [gamma-33P]-ATP assay relative to control.
For assay [14], the target named is CDK7/Cyclin H/MNAT1 (Homo sapiens) (UniProt P51946+P50613+P51948). The experiment in a line: Inhibition of human CDK7/cyclin-H/MNAT1 assessed as residual activity at 1 uM using MBP as substrate by [gamma-33P]-ATP assay relative to control. Type of assay: protein-complex assay.
Assay [15] deals with Dual specificity protein kinase CLK2 (Homo sapiens) (UniProt P49760). In words: Inhibition of human CLK2 assessed as residual activity at 1 uM using MBP as substrate by [gamma-33P]-ATP assay relative to control.
Assay [16] addresses Death-associated protein kinase 1 (Homo sapiens) (UniProt P53355). The experiment in a line: Inhibition of human DAPK1 assessed as residual activity at 1 uM using KKLNRTLSFAEPG as substrate by [gamma-33P]-ATP assay relative to control.
Assay [17] addresses Tyrosine-protein kinase HCK (Homo sapiens) (UniProt P08631). In words: Inhibition of human HCK assessed as residual activity at 1 uM using KVEKIGEGTYGVVYK as substrate by [gamma-33P]-ATP assay relative to control.
For assay [18], the target named is Inhibitor of nuclear factor kappa-B kinase subunit epsilon (Homo sapiens) (UniProt Q14164). In words: Inhibition of human IKKepsilon assessed as residual activity at 1 uM using casein as substrate by [gamma-33P]-ATP assay relative to control.
Chain of Inhibitor of nuclear factor kappa-B kinase subunit epsilon (Homo sapiens) (Q14164 whole entry): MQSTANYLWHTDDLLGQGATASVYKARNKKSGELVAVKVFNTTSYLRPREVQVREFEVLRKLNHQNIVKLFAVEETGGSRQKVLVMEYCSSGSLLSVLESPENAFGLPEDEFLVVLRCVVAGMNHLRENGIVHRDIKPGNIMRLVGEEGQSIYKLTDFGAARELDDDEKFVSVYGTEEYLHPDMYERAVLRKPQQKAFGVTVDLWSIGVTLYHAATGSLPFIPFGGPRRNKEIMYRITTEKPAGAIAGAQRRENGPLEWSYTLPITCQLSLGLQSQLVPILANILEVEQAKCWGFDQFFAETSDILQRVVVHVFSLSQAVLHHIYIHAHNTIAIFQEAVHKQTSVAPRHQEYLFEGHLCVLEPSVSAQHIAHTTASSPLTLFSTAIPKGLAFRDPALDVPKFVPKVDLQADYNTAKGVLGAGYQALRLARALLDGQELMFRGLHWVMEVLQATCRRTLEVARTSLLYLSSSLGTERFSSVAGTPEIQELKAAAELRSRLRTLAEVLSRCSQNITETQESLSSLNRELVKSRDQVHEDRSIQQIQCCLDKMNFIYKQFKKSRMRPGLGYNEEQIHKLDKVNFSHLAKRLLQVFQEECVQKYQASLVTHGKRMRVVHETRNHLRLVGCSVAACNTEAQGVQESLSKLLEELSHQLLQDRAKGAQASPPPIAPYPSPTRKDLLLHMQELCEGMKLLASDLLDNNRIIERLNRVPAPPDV
The target of assay [19] is Tyrosine-protein kinase JAK3 (Homo sapiens) (UniProt P52333). The experiment in a line: Inhibition of human JAK3 assessed as residual activity at 1 uM using poly[Glu:Tyr] (4:1) as substrate by [gamma-33P]-ATP assay relative to control.
The target in assay [20] is Serine/threonine-protein kinase MARK2 (Homo sapiens) (UniProt Q7KZI7). In words: Inhibition of human MARK2 assessed as residual activity at 1 uM using KKKVSRSGLYRSPSMPENLNRPR as substrate by [gamma-33P]-ATP assay relative to control.
Chain of Serine/threonine-protein kinase MARK2 (Homo sapiens) (Q7KZI7 whole entry): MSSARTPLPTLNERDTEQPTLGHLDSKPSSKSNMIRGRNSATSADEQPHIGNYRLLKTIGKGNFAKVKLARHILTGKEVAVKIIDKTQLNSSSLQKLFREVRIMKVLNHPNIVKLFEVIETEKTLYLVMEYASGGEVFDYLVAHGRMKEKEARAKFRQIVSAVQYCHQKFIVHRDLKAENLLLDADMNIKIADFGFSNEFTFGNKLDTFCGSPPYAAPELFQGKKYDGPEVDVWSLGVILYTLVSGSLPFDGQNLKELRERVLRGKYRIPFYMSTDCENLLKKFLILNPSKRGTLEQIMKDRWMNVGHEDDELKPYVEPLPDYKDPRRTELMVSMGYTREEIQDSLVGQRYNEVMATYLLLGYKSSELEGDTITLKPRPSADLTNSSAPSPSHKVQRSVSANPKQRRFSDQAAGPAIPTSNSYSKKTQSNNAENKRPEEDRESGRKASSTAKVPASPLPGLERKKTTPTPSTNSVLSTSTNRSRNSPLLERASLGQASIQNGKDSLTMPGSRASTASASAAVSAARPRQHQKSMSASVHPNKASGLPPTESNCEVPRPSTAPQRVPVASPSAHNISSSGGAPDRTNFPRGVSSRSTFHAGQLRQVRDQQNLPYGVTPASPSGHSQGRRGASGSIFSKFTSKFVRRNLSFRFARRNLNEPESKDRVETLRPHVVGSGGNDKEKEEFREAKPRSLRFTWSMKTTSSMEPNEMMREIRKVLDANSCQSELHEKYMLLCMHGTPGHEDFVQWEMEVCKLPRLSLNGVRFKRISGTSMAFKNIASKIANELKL
Assay [21] concerns the target Misshapen-like kinase 1 (Homo sapiens) (UniProt Q8N4C8). The experiment in a line: Inhibition of human MINK1 assessed as residual activity at 1 uM using MBP as substrate by [gamma-33P]-ATP assay relative to control.
Assay [22] addresses Serine/threonine-protein kinase Nek7 (Homo sapiens, UniProt Q8TDX7). The experiment in a line: Inhibition of human NEK7 assessed as residual activity at 1 uM using casein as substrate by [gamma-33P]-ATP assay relative to control.
Assay [23] deals with Serine/threonine-protein kinase Nek8 (Homo sapiens) (UniProt Q86SG6). In words: Inhibition of human NEK8 assessed as residual activity at 1 uM using casein as substrate by [gamma-33P]-ATP assay relative to control.
The target in assay [24] is Serine/threonine-protein kinase 16 (Homo sapiens) (UniProt O75716). The experiment in a line: Inhibition of human STK16 assessed as residual activity at 1 uM using MBP as substrate by [gamma-33P]-ATP assay relative to control.
For assay [25], the target named is STE20/SPS1-related proline-alanine-rich protein kinase (Homo sapiens) (UniProt Q9UEW8). In words: Inhibition of human STK39 assessed as residual activity at 1 uM using MBP as substrate by [gamma-33P]-ATP assay relative to control.

Chain of Calcium/calmodulin-dependent protein kinase type II subunit alpha (Homo sapiens) (Q9UQM7 whole entry): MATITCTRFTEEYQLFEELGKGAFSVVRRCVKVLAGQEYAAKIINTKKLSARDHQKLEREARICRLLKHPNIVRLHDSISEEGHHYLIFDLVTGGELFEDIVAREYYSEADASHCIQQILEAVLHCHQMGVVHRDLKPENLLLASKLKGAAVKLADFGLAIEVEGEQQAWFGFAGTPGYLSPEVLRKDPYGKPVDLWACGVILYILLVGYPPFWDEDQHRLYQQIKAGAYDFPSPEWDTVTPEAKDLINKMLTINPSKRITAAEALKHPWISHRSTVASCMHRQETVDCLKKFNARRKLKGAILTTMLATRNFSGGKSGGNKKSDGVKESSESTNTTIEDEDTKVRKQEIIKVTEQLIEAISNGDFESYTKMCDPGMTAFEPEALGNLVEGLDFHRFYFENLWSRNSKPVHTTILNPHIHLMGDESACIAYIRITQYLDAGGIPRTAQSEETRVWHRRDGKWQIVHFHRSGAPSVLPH
Chain of Misshapen-like kinase 1 (Homo sapiens) (Q8N4C8 whole entry, looked up): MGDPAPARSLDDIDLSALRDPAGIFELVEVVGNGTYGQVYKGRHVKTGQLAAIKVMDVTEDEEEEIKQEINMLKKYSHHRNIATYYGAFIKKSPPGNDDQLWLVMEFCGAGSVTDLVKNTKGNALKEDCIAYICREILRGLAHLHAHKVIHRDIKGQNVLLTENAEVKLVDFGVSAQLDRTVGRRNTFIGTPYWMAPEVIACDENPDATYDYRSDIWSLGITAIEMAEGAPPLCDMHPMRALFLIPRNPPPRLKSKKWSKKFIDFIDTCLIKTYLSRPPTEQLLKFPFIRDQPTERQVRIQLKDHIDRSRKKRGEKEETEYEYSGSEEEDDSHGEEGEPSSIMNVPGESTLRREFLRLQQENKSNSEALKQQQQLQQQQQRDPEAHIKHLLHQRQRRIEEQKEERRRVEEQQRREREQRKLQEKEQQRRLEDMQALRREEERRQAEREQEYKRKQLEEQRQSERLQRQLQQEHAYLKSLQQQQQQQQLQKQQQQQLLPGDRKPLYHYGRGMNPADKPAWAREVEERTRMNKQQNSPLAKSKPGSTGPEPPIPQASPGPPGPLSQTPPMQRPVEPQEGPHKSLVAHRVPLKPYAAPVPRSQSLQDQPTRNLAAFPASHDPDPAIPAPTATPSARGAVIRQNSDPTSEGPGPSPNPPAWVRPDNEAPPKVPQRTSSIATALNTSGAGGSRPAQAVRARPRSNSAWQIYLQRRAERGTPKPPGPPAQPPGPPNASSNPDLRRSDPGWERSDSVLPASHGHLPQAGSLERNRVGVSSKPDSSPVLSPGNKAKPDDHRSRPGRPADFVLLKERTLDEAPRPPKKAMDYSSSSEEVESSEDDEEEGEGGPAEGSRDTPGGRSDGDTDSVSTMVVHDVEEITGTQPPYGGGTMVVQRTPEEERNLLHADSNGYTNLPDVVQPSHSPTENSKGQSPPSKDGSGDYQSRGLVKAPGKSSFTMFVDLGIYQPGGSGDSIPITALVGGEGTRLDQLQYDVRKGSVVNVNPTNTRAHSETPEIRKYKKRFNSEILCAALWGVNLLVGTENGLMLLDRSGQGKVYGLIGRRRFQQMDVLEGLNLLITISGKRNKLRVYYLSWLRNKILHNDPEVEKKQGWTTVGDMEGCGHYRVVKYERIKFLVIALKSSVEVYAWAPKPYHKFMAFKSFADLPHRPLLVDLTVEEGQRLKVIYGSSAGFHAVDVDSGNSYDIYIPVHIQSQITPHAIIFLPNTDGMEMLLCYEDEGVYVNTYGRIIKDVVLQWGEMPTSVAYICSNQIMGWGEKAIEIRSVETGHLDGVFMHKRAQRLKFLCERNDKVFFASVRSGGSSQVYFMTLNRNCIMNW
Chain of Tyrosine-protein kinase HCK (Homo sapiens) (P08631 2-526 limits assumed): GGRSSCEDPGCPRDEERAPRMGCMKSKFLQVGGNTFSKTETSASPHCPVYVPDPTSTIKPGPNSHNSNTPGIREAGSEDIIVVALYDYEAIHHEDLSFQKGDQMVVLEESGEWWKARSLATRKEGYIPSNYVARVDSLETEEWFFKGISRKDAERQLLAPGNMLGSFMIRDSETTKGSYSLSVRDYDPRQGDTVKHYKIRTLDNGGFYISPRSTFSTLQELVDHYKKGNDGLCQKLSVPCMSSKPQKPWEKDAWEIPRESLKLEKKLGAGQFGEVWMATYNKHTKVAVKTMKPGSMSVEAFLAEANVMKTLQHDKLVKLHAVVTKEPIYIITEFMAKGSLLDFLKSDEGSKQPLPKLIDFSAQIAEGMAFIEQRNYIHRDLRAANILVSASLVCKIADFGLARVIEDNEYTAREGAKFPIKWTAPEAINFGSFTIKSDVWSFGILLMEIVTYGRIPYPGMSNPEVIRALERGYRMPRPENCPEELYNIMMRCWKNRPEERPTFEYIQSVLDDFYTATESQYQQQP

On to `C(=C\c1ccccc1)/C[N+]12CN3CN(CN(C3)C1)C2`, for which the Activity is 93.1 to 94.1% in assay [1]; 93.6 to 94.9% in assay [2]; 94 to 95.2% in assay [3]; 90.5 to 97% in assay [4]; 96.4 to 98.9% in [5]; 96.8% in assay [6]. Further, the Activity was 89.6% in assay [7]; 87.8 to 90.1% in assay [8]; 93.3 to 94.8% in assay [9]; 79.8 to 81% in [10]; 89.3 to 93.7% in assay [11]; 112 to 120% in [12].

As for `ClC/C=C/C[N+]12CN3CN(CN(C3)C1)C2`, the Activity in assay [13] lay within 87.9 to 94.8%; in assay [14], 97.4 to 97.9%; in assay [15], 93.9 to 94.5%; in [16], 119 to 135%; in [17] it was 93.1 to 95.5%; in assay [18] it was 111 to 113%. Besides, the Activity is 94.2 to 96.6% in assay [19]; 94.5% in [20]; 91.9 to 94.8% in assay [21]; 94.2 to 95.6% in assay [22]; 88.6 to 89% in [23]; 93.1 to 95.2% in assay [24]. For the same compound, the Activity in assay [25] lay within 94.4 to 94.9%.
